Laboratory results reported in ChEMBL document CHEMBL4433214, “Investigation around the Oxadiazole Core in the Discovery of a New Chemotype of Potent and Selective FXR Antagonists” (ACS Med Chem Lett, 2019).
The source made the active and inactive calls. No cut-off for these calls is given here.

How the values were obtained:
[1] = biological target: T1, Bile acid receptor (Homo sapiens) (UniProt Q96RI1); assay: Antagonist activity at human FXR assessed as reduction in CDCA-induced FXR-SRC-1 recruitment at 500 to 1000 nM incubated for 30 mins by alpha screen assay
T1 sequence (whole entry): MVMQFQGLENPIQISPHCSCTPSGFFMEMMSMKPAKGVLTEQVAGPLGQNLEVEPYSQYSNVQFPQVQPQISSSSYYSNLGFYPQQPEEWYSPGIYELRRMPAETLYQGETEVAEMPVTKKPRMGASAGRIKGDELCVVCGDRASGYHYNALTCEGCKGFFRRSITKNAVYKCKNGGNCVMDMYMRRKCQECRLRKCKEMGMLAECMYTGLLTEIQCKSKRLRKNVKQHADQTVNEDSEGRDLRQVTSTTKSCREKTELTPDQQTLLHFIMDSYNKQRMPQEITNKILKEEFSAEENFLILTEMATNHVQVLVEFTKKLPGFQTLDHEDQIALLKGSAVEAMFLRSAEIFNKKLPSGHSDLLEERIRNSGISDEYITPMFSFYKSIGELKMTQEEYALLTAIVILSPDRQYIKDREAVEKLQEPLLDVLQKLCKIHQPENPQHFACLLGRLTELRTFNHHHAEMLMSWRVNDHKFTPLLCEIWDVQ

[2] = biological target: T2, Oxysterols receptor LXR-alpha (Homo sapiens) (UniProt Q13133); assay: Agonist activity at human LXRalpha transfected in HepG2 at 10 uM by luciferase reporter assay; assay type: cell-based
T2 sequence (whole entry): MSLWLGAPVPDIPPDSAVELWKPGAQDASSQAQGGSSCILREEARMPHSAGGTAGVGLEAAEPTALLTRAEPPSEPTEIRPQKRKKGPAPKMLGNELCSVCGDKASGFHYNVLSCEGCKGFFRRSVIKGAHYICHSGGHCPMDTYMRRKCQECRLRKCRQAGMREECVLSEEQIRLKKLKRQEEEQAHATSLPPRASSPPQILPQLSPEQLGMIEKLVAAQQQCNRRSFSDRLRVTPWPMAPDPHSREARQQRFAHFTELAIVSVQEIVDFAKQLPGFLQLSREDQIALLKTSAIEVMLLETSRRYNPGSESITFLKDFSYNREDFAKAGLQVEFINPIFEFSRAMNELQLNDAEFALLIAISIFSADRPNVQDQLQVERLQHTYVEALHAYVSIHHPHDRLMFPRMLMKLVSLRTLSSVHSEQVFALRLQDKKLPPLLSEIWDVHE

[3] = biological target: T1, Bile acid receptor (Homo sapiens); assay: Antagonist activity at human FXR in HepG2 cells assessed as reversal of CDCA-induced increase in PEPCK mRNA expression level at 0.1 to 1 uM dosed after 24 hrs starvation followed by CDCA addition and measured after 18 hrs by RT-PCR analysis

`c1ccc2cc(-c3noc(C4CCNCC4)n3)ccc2c1` was tested. Which inhibition [1] did it give?
The inhibition was “Active”.

What about the Activity [2] of the same molecule?
Its Activity is “inactive”.

And the Activity [3]?
Its Activity is “Active”.
